Measurements from article PMC12337082 (Journal of Biochemical and Molecular Toxicology, 2025).
“Also recorded” adds a separate entry of the source. Like-named read-outs stand apart in the source and are kept apart here.

Columns and labels:
MDA‐MB‐231 [1] = conditions: MDA‐MB‐231, 24 h, ref Badawi et al. (2023) [68]; cited from earlier work
MCF‐7 [2] = conditions: MCF‐7, 24 h, ref Badawi et al. (2023) [68]; cited from earlier work
PGE2 release [3] = assay: PGE2 ELISA, MDA‐MB‐231; assay type: cell-based, human; conditions: MDA‐MB‐231, 3 µM
Protocol: (§1) PGE2 ELISA kit (ENZO, ADI‐900‐001) was used to determine prostaglandin synthesis levels. MCF‐7 and MDA‐MB‐231 breast cancer cells were cultured at a density of 1 × 10^6 cells/well in a 6‐well culture dish. […] Following 24 h of incubation, the medium was replaced with a fresh one, 10 µM arachidonic acid was added, and it was further incubated for 1 h. The PGE2 levels were determined according to the kit protocol.

PGE2 release [4] = assay: PGE2 ELISA, MCF‐7; assay type: cell-based, human; conditions: MCF‐7, 3 µM
Protocol: as §1

[5] = tested on: multiple myeloma cell lines; parameters: method as in Yasui et al. (2007) [63]; conditions: 48 h, ref Yasui et al. (2007) [63]; cited from earlier work
MCF‐7 [6] = assay: Mitochondrial membrane potential (JC‐1) apoptosis assay, MCF‐7; assay type: cell-based, human; conditions: MCF‐7, 50 μM, 24 h, MMP assay
Protocol: (§2) Apoptosis was also investigated by evaluating mitochondrial membrane potential changes (MMP assay). MCF‐7, MDA‐MB‐231, and L‐929 cells were stained with JC‐1 dye according to the manufacturer's protocols (JC‐1 MMP Assay Kit, KA1324, Abnova). The apoptotic to healthy cell ratio was calculated using absorbances collected from two different fluorescence channels (535/595 for healthy cells, 485/535 for apoptotic cells) (Synergy H1, Biotech Instruments Inc., Vermont, USA).

COX‐2 [7] = assay: Western blot COX‐2 protein expression, MDA‐MB‐231; assay type: cell-based, human; conditions: 24 h
Protocol: (§3) Total protein levels were measured using the Take3 Multi‐Volume Plate (Synergy H1, BioTek Instruments Inc., Vermont, USA). In accordance with the classical protocol, transferred proteins were exposed to the following primary antibodies: Beta‐actin (NB600‐501, Novus Biologicals), Bax (SPM336, NBP2‐32809), Bcl‐2 (100/D5, NBP2‐15200), cleaved PARP (194C1439, NBP2‐27335), and COX‐2 (D‐12:sc‐166475, Santa Cruz). The bands were visualized with chemiluminescent HRP substrates (Western Bright ECL‐Advansta, K‐12045‐050). Using a chemiluminescence imaging system (Celvin S, BioStep), the relative quantification was done based on the level of β‐actin proteins.

MCF‐7 [8] = assay: MTT cell viability assay, MCF‐7; assay type: cell-based, human; conditions: for IC50: Homo sapiens, MCF7, MTT
Text: (§4) MCF‐7, MDA‐MB‐231, and L‐929 mouse fibroblast cell lines were obtained from the American Type Culture Collection (ATCC, Manassas, Virginia, USA). MCF‐7 is a hormone‐responsive, differentiated mammary epithelium cell line with an ER+, PR+, and HER2‐ pattern (ATCC, HTB‐22). MDA‐MB‐231 is a triple‐negative differentiated mammary epithelium cell line (ATCC, HTB‐26). The L‐929 mouse fibroblast cell line is derived from the normal subcutaneous connective tissue of a mouse and is commonly used in cytotoxicity assays (ATCC, CCL‐1). All cell lines were cultured in DMEM medium (Dulbecco's Modified Eagle Medium, Gibco), supplemented with 10% fetal bovine serum (Gibco), 1% glutamine, and penicillin/streptomycin (Gibco) in a humidified atmosphere containing 5% CO2 at 37°C. Cell viability was tested using Trypan blue staining.
(§5) The MTT [3‐(4,5‐dimethylthiazol‐2‐yl)−2,5‐diphenyltetrazolium bromide] assay is a colorimetric assay for determining cell metabolic activity. In the MTT assay, the yellow dye MTT that dissolves in water is changed by mitochondrial reductase into a purple formazan that is non‐soluble. The water‐insoluble formazan produced is solubilized in a solubilization buffer, and absorbances are detected.
(§6) In 96‐well plates, the cells were cultivated at a density of 5 × 10^3 cells/well using 100 µL medium. […] 10 μL of the MTT labeling reagent (final concentration 0.5 mg/mL) were added to each well at the end of the incubation periods, and the wells were incubated for an additional 4 h. Next, each well received 100 μL of solubilization buffer (10% SDS in 0.01 M HCl) and was overnight incubated, and the absorbance of formazan products was evaluated at 550 nm using a multi‐mode microplate reader (Synergy H1, Biotech Instruments Inc., Vermont, USA). The results were normalized relative to the absorbances of calculated percent concentrations of DMSO. All tests involved three replicates with three independent experiments.
(§7) All statistical evaluations, including t‐tests and IC50 values, were calculated using the GraphPad Prism software tool (v6.0, GraphPad Software Inc., San Diego, USA). Statistical significance was defined as p ˂ 0.05 (*p < 0.05, **p < 0.01, ***p < 0.001, ****p < 0.0001).

MDA‐MB‐231 [9] = assay: MTT cell viability assay, MDA‐MB‐231; assay type: cell-based, human; conditions: for IC50: Homo sapiens, MTT
Text: as §4, §5, §6, §7

[10] = tested on: L‐929 mouse fibroblast cell line; assay: MTT cell viability assay, L‐929 control fibroblasts; assay type: cell-based; conditions: Mus musculus
Text: as §4, §5, §6, §7

MDA‐MB‐231 [11] = assay: Mitochondrial membrane potential (JC‐1) apoptosis assay, MDA‐MB‐231; assay type: cell-based, human; conditions: MDA‐MB‐231, 50 μM, 24 h, MMP assay
Protocol: as §2

COX‐2 [12] = assay: Western blot COX‐2 protein expression, MCF‐7; assay type: cell-based, human; conditions: 24 h
Protocol: as §3

MCF‐7 [13] = assay: Annexin V/PI staining, Tali image‐based cytometry, MCF‐7; assay type: cell-based, human; conditions: MCF‐7, 24 h
Text: (§8) To assess apoptosis and cell death, cells were stained with Annexin V‐PI dyes (Tali Apoptosis Kit‐Annexin V Alexa Fluor 488 and PI‐, Molecular Probes A10788, Invitrogen) and quantified using Tali Image‐Based Cytometer (Invitrogen) and fluorescence microscopy (Olympus CKX41 Inverted Phase Contrast Fluorescence Microscope furbished with reflected fluorescence illuminator CKX‐RFA).
(§9) To assess whether our compounds produce their cytotoxic effects through induction of apoptosis, apoptosis was investigated using Annexin V/PI labeling and MMP methods (Figures 4A−C). In addition, by utilizing TALI image‐based cytometry and fluorescent microscopy, the number of cells was analyzed for different concentrations of agents (Table 4).

L‐929 = assay: Mitochondrial membrane potential (JC‐1) apoptosis assay, L‐929; assay type: cell-based, mouse; conditions: L‐929, 50 μM, 24 h, MMP assay
Protocol: as §2

Bax/Bcl‐2 ratio = assay: Western blot Bax/Bcl‐2 ratio in breast cancer cell lines; assay type: cell-based, human; conditions: 50 and 75 µM, 24 h
Protocol: as §3

MDA‐MB‐231 [14] = assay: Annexin V/PI staining, Tali image‐based cytometry, MDA‐MB‐231; assay type: cell-based, human; conditions: MDA‐MB‐231, 24 h
Text: as §8, §9

c‐PARP = assay: Western blot cleaved PARP, MDA‐MB‐231; assay type: cell-based, human; conditions: MDA‐MB‐231, 24 h, all concentrations (50 and 75 µM); not measurable in MCF‐7
Protocol: as §3

## O=c1[nH]cc(F)c(=O)[nH]1 [5‐FU]
MDA‐MB‐231 [1]
  IC50: 11.7 µM
MCF‐7 [2]
  IC50: 17 µM

## CS(=O)(=O)c1ccc(-c2cc(Br)sc2-c2ccc(F)cc2)cc1 [DUP‐697]
PGE2 release [3]
  Reduction of PGE2 release: 88%
PGE2 release [4]
  Reduction of PGE2 release: 46%

## CCc1cc(Br)cc2c3c([nH]c12)C(CC)(CCO)OCC3 (stereo not drawn) [Etodolac analog SDX‐308]
[5]
  IC50: 23.8 µM

## CCc1cccc2c3c([nH]c12)C(CC)(CC(=O)NN1C(=O)CSC1c1c(F)cccc1F)OCC3 (stereo not drawn) [SGK 217, 3‐(2‐(1,8‐Diethyl‐1,3,4,9‐tetrahydropyrano[3,4‐b]indole‐1‐yl)acetylhydrazono)‐2‐(2,6‐difluorophenyl)‐4‐thiazolidinone]
MCF‐7 [6]
  Increase in apoptosis compared to the control group: 51%
COX‐2 [7]; MDA‐MB‐231, 50 µM
  Decrease in COX‐2 protein expression compared to the control group: 61%
COX‐2 [7]; MDA‐MB‐231, 75 µM
  Decrease in COX‐2 protein expression compared to the control group: 84%
MCF‐7 [8]; MCF‐7, 24 h
  IC50: 18 ± 3.4 µM
MCF‐7 [8]; MCF‐7, 48 h
  IC50: 12.2 ± 2 µM
MCF‐7 [8]; MCF‐7, 72 h
  IC50: 26.7 ± 4.8 µM
MCF‐7 [8]; MCF‐7 in comparison to L‐929, 24 h
  Selectivity index (SI): 4.0
MCF‐7 [8]; MCF‐7 in comparison to L‐929, 48 h
  Selectivity index (SI): 2.4
MCF‐7 [8]; MCF‐7 in comparison to L‐929, 72 h
  Selectivity index (SI): 1
MDA‐MB‐231 [9]; MDA-MB-231, 24 h, MDA‐MB‐231, 24 h
  IC50: 36 ± 1.6 µM
MDA‐MB‐231 [9]; MDA-MB-231, 48 h, MDA‐MB‐231, 48 h
  IC50: 13.8 ± 1.6 µM
MDA‐MB‐231 [9]; MDA-MB-231, 72 h, MDA‐MB‐231, 72 h
  IC50: 14.6 ± 1.4 µM
MDA‐MB‐231 [9]; MDA‐MB‐231 in comparison to L‐929, 24 h
  Selectivity index (SI): 2.0
MDA‐MB‐231 [9]; MDA‐MB‐231 in comparison to L‐929, 48 h
  Selectivity index (SI): 2.1
MDA‐MB‐231 [9]; MDA‐MB‐231 in comparison to L‐929, 72 h
  Selectivity index (SI): 1.8
[10]; L929, 24 h, L‐929, 24 h
  IC50: 72 ± 3.2 µM
[10]; L929, 48 h, L‐929, 48 h
  IC50: 29.6 ± 0.94 µM
[10]; L929, 72 h, L‐929, 72 h
  IC50: 26.3 ± 0.112 µM
MDA‐MB‐231 [11]
  Increase in apoptosis compared to the control group: 85%
COX‐2 [12]; MCF‐7, 50 µM
  Decrease in COX‐2 protein expression compared to the control group: 56%
COX‐2 [12]; MCF‐7, 75 µM
  Decrease in COX‐2 protein expression compared to the control group: 85%
MCF‐7 [13]; 25 µM
  Apoptotic cells: 6%
  Dead cells: 7%
  Live cells: 87%
MCF‐7 [13]; 50 µM
  Apoptotic cells: 16%
  Dead cells: 10%
  Live cells: 74%
MCF‐7 [13]; 75 µM
  Apoptotic cells: 18%
  Dead cells: 27%
  Live cells: 55%
L‐929
  Increase in apoptosis compared to the control group: 3%
Bax/Bcl‐2 ratio
  Bax/Bcl‐2 ratio change: significantly rise
MDA‐MB‐231 [14]; 25 µM
  Apoptotic cells: 0%
  Dead cells: 7%
  Live cells: 93%
MDA‐MB‐231 [14]; 50 µM
  Apoptotic cells: 23%
  Dead cells: 11%
  Live cells: 66%
c‐PARP
  c‐PARP (89‐kD fragment) protein change: consistent activation; also recorded: significant increase

## CCc1cccc2c3c([nH]c12)[C@@](CC)(CC(=O)O)OCC3 [Etodolac R‐enantiomer SDX‐101]
[5]
  IC50: 490 µM
